Measurements taken from US20240116985A1, “STAPLED PEPTIDES AND METHODS THEREOF” (priority 2020, published 2024).
Where two headings read alike, the source gives them in different places.

What was measured:
[1] = target: T1, full-length beta-Catenin (Uniprot ID P35222) (Homo sapiens, UniProt P35222); assay: Fluorescence polarization IC50 (beta-catenin / 5FAM-TCF4 10-53 competition); assay type: binding
T1 construct: 10 nM full-length beta-Catenin (Uniprot ID P35222)
T1 sequence (P35222 1-781): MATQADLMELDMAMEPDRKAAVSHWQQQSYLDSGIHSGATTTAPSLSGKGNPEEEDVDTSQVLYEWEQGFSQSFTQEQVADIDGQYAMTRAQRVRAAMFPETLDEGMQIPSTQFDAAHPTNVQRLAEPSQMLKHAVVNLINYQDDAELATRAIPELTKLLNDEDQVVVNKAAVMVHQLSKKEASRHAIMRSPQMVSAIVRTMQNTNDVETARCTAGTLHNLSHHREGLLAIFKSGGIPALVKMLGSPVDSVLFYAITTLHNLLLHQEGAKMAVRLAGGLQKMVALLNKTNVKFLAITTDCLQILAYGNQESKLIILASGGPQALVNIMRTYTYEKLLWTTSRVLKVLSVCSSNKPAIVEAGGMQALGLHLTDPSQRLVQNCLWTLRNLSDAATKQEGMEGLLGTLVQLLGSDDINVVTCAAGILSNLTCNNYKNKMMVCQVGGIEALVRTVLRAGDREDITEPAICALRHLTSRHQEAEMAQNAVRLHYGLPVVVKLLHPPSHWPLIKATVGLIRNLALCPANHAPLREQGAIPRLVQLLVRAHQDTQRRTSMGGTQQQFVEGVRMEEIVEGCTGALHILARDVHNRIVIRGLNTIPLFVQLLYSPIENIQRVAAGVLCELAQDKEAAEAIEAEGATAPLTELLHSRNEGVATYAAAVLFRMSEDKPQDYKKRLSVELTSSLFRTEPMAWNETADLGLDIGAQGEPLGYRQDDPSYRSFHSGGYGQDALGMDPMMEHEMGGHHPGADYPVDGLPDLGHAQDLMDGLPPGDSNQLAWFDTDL

[2] = target: T2, beta-catenin/TCF4 engagement (Homo sapiens, UniProt P35222); assay: Nano-BRET target engagement assay (B-cat-Halo & TCF4-Luc in HEK293 cells); assay type: cell-based; conditions: read-out: NanoBRET Abs IC50
T2 construct: expressed in transfected cells; host or cells: HEK293
T2 sequence (P35222 1-781): T1 sequence (P35222 1-781)

[3] = fluorescence polarization; read-out: beta-Catenin FP IC50

IC50 [2]	IC50 [1, 3]	IC50 ([2]; absolute IC50)	SMILES	IC50 ([1]; read-out: beta-Catenin FP IC50; fluorescence polarization)
7.1 µM	0.009 µM		CC(=O)N1CCC[C@]12CC=CCCCC1(CCCC=CCCCOC(=O)N3CC[C@@](C(=O)N[C@@H](Cc4ccsc4)C(=O)N[C@@H](Cc4csc5ccccc45)C(=O)N[C@@H](CCC(N)=O)C(N)=O)(C3)NC(=O)[C@H](CCC(=O)N3CCN(CC(F)(F)F)CC3)NC(=O)[C@H](Cc3ccccc3)NC(=O)[C@H](C)NC(=O)[C@H](C)NC(=O)[C@H](CN(CC(=O)O)CC(F)(F)F)NC(=O)[C@H](CC(=O)O)NC1=O)NC(=O)[C@H](CC(C)(C)C)NC(=O)[C@H](CC(=O)O)NC2=O (stereo partly drawn) [I-1935, Ac-PL3-Asp-Npg-B5-Asp-TfeGA-Ala-Ala-Phe-[TfePpz]GlnR-PyrS2-3Thi-BztA-Gln-NH2]	
	0.011 µM	3.6 µM	CC(=O)NCCCC[C@@H]1NC(=O)[C@H](Cc2ccccc2)NC(=O)[C@H](C)NC(=O)[C@H](C)NC(=O)[C@H](Cc2cccc(C(=O)O)c2)NC(=O)[C@H](CC(=O)O)NC(=O)C2(CCCC=CCCCOC(=O)N3CC[C@@](C(=O)N[C@@H](Cc4ccccc4C(F)(F)F)C(=O)N[C@@H](Cc4csc5ccccc45)C(=O)N[C@@H](CCC(=O)N(C)C)C(N)=O)(C3)NC1=O)CCCC=CC[C@]1(CCCN1C(C)=O)C(=O)N[C@@H](CC(=O)O)C(=O)N[C@@H](CC(C)(C)C)C(=O)N2 (stereo partly drawn) [I-2539, Ac-PL3-Asp-Npg-B5-Asp-3COOHF-Ala-Ala-Phe-AcLys-PyrS2-2F3MeF-BztA-Me2Gln-NH2]	
	0.017 µM	10.5 µM	CCCC[C@@H]1NC(=O)[C@H](Cc2ccccc2)NC(=O)[C@H](C)NC(=O)[C@H](C)NC(=O)[C@H](CN(CC(=O)O)CC(F)(F)F)NC(=O)[C@H](CC(=O)O)NC(=O)C2(CCCC=CCCCOC(=O)N3CC[C@@](C(=O)N[C@@H](Cc4ccsc4)C(=O)N[C@@H](Cc4csc5ccccc45)C(=O)N[C@@H](CCC(N)=O)C(N)=O)(C3)NC1=O)CCCC=CC[C@]1(CCCN1C(C)=O)C(=O)N[C@@H](CC(=O)O)C(=O)N[C@@H](CC(C)(C)C)C(=O)N2 (stereo partly drawn) [I-1776, Ac-PL3-Asp-Npg-B5-Asp-TfeGA-Ala-Ala-Phe-nLeu-PyrS2-3Thi-BztA-Gln-NH2]	
12.9 µM	0.006 µM		CC(=O)N1CCC[C@]12CC=CCCCC1(CCCC=CCCCOC(=O)N3CC[C@@](C(=O)N[C@@H](Cc4ccsc4)C(=O)N[C@@H](Cc4csc5ccccc45)C(=O)N[C@@H](CCC(N)=O)C(N)=O)(C3)NC(=O)[C@H](CCC(=O)N3CCNCC3)NC(=O)[C@H](Cc3ccccc3)NC(=O)[C@H](C)NC(=O)[C@H](C)NC(=O)[C@H](CN(CC(=O)O)CC(F)(F)F)NC(=O)[C@H](CC(=O)O)NC1=O)NC(=O)[C@H](CC(C)(C)C)NC(=O)[C@H](CC(=O)O)NC2=O (stereo partly drawn) [I-1941, Ac-PL3-Asp-Npg-B5-Asp-TfeGA-Ala-Ala-Phe-[Ppz]GlnR-PyrS2-3Thi-BztA-Gln-NH2]	
	0.0525 µM	29.3 µM	CC(=O)N1CCC[C@]12CC=CCCCC1(CCCC=CCCCCCC[C@@](C)(C(=O)N[C@@H](Cc3ccsc3)C(=O)N[C@@H](Cc3csc4ccccc34)C(=O)N[C@@H](CCC(N)=O)C(N)=O)NC(=O)[C@H](CC(N)=O)NC(=O)[C@H](Cc3ccccc3)NC(=O)[C@H](C)NC(=O)[C@H](C)NC(=O)[C@H](CN(CCC(F)(F)F)CC(=O)O)NC(=O)[C@H](CC(=O)O)NC1=O)NC(=O)[C@H](CC(C)(C)C)NC(=O)[C@H](CC(=O)O)NC2=O (stereo partly drawn) [I-1625, Ac-PL3-Asp-Npg-B5-Asp-[Tfp]GA-Ala-Ala-Phe-Asn-S8-3Thi-BztA-Gln-NH2]	

The remaining lines, values behind:

SMILES	IC50 [2]	IC50 [1, 3]	IC50 ([2]; absolute IC50)	IC50 ([1]; read-out: beta-Catenin FP IC50; fluorescence polarization)
CC(=O)N1CCC[C@]12CC=CCCCC1(CCCC=CCCCOC(=O)N3CC[C@@](C(=O)N[C@@H](Cc4ccsc4)C(=O)N[C@@H](Cc4csc5ccccc45)C(=O)N[C@@H](CCC(N)=O)C(N)=O)(C3)NC(=O)[C@H](CC(C)C)NC(=O)[C@H](Cc3ccccc3)NC(=O)[C@H](C)NC(=O)[C@H](C)NC(=O)[C@H](CC(=O)O)NC(=O)[C@H](CC(=O)O)NC1=O)NC(=O)[C@H](CC(C)(C)C)NC(=O)[C@H](CC(=O)OCCSSc1ccccc1)NC2=O (stereo partly drawn) [I-1953, Ac-PL3-[EtSSPh]AspE-Npg-B5-Asp-Asp-Ala-Ala-Phe-Leu-PyrS2-3Thi-BztA-Gln-NH2]	> 20 µM			0.306 µM
CC(=O)NCCCC[C@@H]1NC(=O)[C@H](Cc2ccccc2)NC(=O)[C@H](C)NC(=O)[C@H](C)NC(=O)[C@H](Cc2cccc(C(=O)O)c2)NC(=O)[C@H](CC(=O)O)NC(=O)C2(CCCC=CCCCOC(=O)N3CC[C@@](C(=O)N[C@@H](Cc4ccccc4C(F)(F)F)C(=O)N[C@@H](Cc4csc5ccccc45)C(=O)N[C@@H](CCC(=O)N(C)C)C(N)=O)(C3)NC1=O)CCCC=CC[C@]1(CCCN1C(C)=O)C(=O)N[C@@H](CC(=O)O)C(=O)N[C@@H](CC(C)(C)C)C(=O)N2 (stereo partly drawn) [I-2540, Ac-PL3-Asp-Npg-B5-Asp-3COOHF-Ala-Ala-Phe-AcLys-PyrS2-2F3MeF-BztA-Me2Gln-NH2]		0.014 µM	3.5 µM	
CC(=O)N1CCC[C@]12CC=CCCCC1(CCCC=CCCCCCC[C@@](C)(C(=O)N[C@@H](Cc3ccccc3)C(=O)N[C@@H](Cc3csc4ccccc34)C(=O)N[C@@H](CCC(N)=O)C(N)=O)NC(=O)[C@H](CCC(N)=O)NC(=O)[C@H](Cc3ccccc3)NC(=O)[C@H](C)NC(=O)[C@H](C)NC(=O)[C@H](CCC(=O)O)NC(=O)[C@H](CC(=O)O)NC1=O)NC(=O)[C@H](CCO)NC(=O)[C@H](CC(=O)O)NC2=O (stereo partly drawn) [I-1545, Ac-PL3-Asp-Hse-B5-Asp-Glu-Ala-Ala-Phe-Gln-S8-Phe-BztA-Gln-NH2]		0.026 µM	> 20 µM	
CC(=O)N1CCC[C@]12CC=CCCCC1(CCCC=CCCCOC(=O)N3CC[C@@](C(=O)N[C@@H](Cc4ccsc4)C(=O)N[C@@H](Cc4csc5ccccc45)C(=O)N[C@@H](CC(N)=O)C(=O)N[C@@H](C)C(=O)N[C@@H](CC(C)C)C(=O)N[C@@H](C)C(=O)N[C@@H](CC(C)C)C(=O)N[C@@H](C)C(N)=O)(C3)NC(=O)[C@H](CC(C)C)NC(=O)[C@H](Cc3ccccc3)NC(=O)[C@H](C)NC(=O)[C@H](C)NC(=O)[C@H](Cc3cccc(C(=O)O)c3)NC(=O)[C@H](CC(=O)O)NC1=O)NC(=O)[C@H](CC(C)(C)C)NC(=O)[C@H](CC(=O)O)NC2=O (stereo partly drawn) [I-2281, Ac-PL3-Asp-Npg-B5-Asp-3COOHF-Ala-Ala-Phe-Leu-PyrS2-3Thi-BztA-Asn-Ala-Leu-Ala-Leu-Ala-NH2]		0.138 µM	4.3 µM	
CC(=O)N1CCC[C@]12CC=CCCCC1(CCCC=CCCCOC(=O)N3CC[C@@](C(=O)N[C@@H](Cc4ccsc4)C(=O)N[C@@H](Cc4ccc(F)c(Br)c4)C(=O)N[C@@H](C)C(N)=O)(C3)NC(=O)[C@H](C(C)C)NC(=O)[C@H](Cc3ccccc3)NC(=O)[C@H](C)NC(=O)[C@H](CCC(N)=O)NC(=O)[C@H](Cc3cccc(C(=O)O)c3)NC(=O)[C@H](CC(=O)O)NC1=O)NC(=O)[C@H](CC(C)(C)C)NC(=O)[C@H](CC(=O)O)NC2=O (stereo partly drawn) [I-2288, Ac-PL3-Asp-Npg-B5-Asp-3COOHF-Gln-Ala-Phe-Val-PyrS2-3Thi-3Br4FF-Ala-NH2]		0.005 µM	6.7 µM	
CC(=O)N1CCC[C@]12CC=CCCCC1(CCCC=CCCCOC(=O)N3CC[C@@](C(=O)N[C@@H](Cc4ccsc4)C(=O)N[C@@H](Cc4csc5ccccc45)C(=O)N[C@H](C)C(N)=O)(C3)NC(=O)[C@H](Cc3ccccc3)NC(=O)[C@H](Cc3ccccc3)NC(=O)[C@H](C)NC(=O)[C@H](C)NC(=O)[C@H](Cc3cccc(C(=O)O)c3)NC(=O)[C@H](CC(=O)O)NC1=O)NC(=O)[C@H](CC(C)(C)C)NC(=O)[C@H](CC(=O)O)NC2=O (stereo partly drawn) [I-2094, Ac-PL3-Asp-Npg-B5-Asp-3COOHF-Ala-Ala-Phe-Phe-PyrS2-3Thi-BztA-dAla-NH2]	9.7 µM	0.028 µM		
CCCC[C@@H]1NC(=O)[C@H](CC(=O)O)NC(=O)[C@]2(CC=CCCCC3(CCCC=CCCCCCC[C@@](C)(C(=O)N[C@@H](Cc4ccccc4)C(=O)N[C@@H](Cc4csc5ccccc45)C(=O)N[C@@H](CCC(N)=O)C(N)=O)NC(=O)[C@H](CCO)NC(=O)[C@H](Cc4ccccc4)NC(=O)[C@H](C)NC(=O)[C@H](C)NC(=O)[C@H](CCC(=O)O)NC(=O)[C@H](CC(=O)O)NC3=O)NC1=O)CCCN2C(C)=O (stereo partly drawn) [I-1525, Ac-PL3-Asp-nLeu-B5-Asp-Glu-Ala-Ala-Phe-Hse-S8-Phe-BztA-Gln-NH2]		0.022 µM	10.8 µM	
CCS(=O)(=O)N1CCN(C(=O)CC[C@@H]2NC(=O)[C@H](Cc3cccc(C(=O)O)c3)NC(=O)[C@H](CC(=O)O)NC(=O)C3(CCCC=CCCCOC(=O)N4CC[C@@](C(=O)N[C@@H](Cc5ccccc5C(F)(F)F)C(=O)N[C@@H](Cc5csc6ccccc56)C(=O)N[C@@H](C)C(N)=O)(C4)NC(=O)[C@H](CC(C)C)NC(=O)[C@H](Cc4ccccc4)NC(=O)[C@H](C)NC2=O)CCCC=CC[C@]2(CCCN2C(C)=O)C(=O)N[C@@H](CC(=O)O)C(=O)N[C@@H](CC(C)(C)C)C(=O)N3)CC1 (stereo partly drawn) [I-2321, Ac-PL3-Asp-Npg-B5-Asp-3COOHF-[EtSO2Ppz]GlnR-Ala-Phe-Leu-PyrS2-2F3MeF-BztA-Ala-NH2]		0.005 µM	1.7 µM	
